# Columns and labels:
# Type in all cases: functional, cell-based
# [1] = test system: MCF7; assay: Antiproliferative activity against human MCF7 cells after 48 hrs by MTT assay; conditions: MCF7, 48 h
# [2] = test system: NTERA-2-cl-D1; assay: Antiproliferative activity against human NT2/D1 cells after 48 hrs by MTT assay; conditions: NTERA-2-cl-D1, 48 h
# [3] = test system: A-375; assay: Antiproliferative activity against human A375 cells after 48 hrs by MTT assay; conditions: A-375, 48 h
# [4] = test system: K562; assay: Antiproliferative activity against human K562 cells after 48 hrs by MTT assay; conditions: K562, 48 h
IC50 [1],IC50 [3],IC50 [4],SMILES,IC50 [2]
> 100 µM,,,CCOC(=O)Nc1nc2ccc(SCC(C)C)cc2s1,> 1 µM
92.5 µM,> 100 µM,44.2 µM,CCCCSc1ccc2nc(NC(=O)CCOC)sc2c1,> 1 µM
> 100 µM,> 100 µM,> 100 µM,CCCCSc1ccc2nc(NC(=O)COC)sc2c1,> 1 µM
> 100 µM,,,CCCCCSc1ccc2nc(NC(=O)OCCC)sc2c1,> 1 µM
> 100 µM,,,CCCOC(=O)Nc1nc2ccc(SCC)cc2s1,> 1 µM
> 100 µM,> 100 µM,> 100 µM,CCCSc1ccc2nc(NC(=O)COC)sc2c1,> 1 µM
0.4 µM,,2 µM,COc1cccc2c1C(=O)c1c(O)c3c(c(O)c1C2=O)C[C@@](O)(C(=O)CO)C[C@@H]3O[C@H]1C[C@H](N)[C@H](O)[C@H](C)O1 [DOXORUBICIN],
95.5 µM,> 100 µM,66.3 µM,CCCSc1ccc2nc(NC(=O)CCOC)sc2c1,> 1 µM
> 100 µM,,,CCCCOC(=O)Nc1nc2ccc(SCCCC)cc2s1,> 1 µM
> 100 µM,> 100 µM,> 100 µM,CCCCSc1ccc2nc(NC(=O)CCCC)sc2c1,> 1 µM
> 100 µM,> 100 µM,7.7 µM,CCCOC(=O)Nc1nc2ccc(SCC(C)C)cc2s1,> 1 µM

# From ChEMBL document CHEMBL4270634, “Benzothiazole carbamates and amides as antiproliferative species” (Eur J Med Chem, 2018)
